In PubChem BioAssay (NCI):
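Method: 48-hour compound exposure of cells in 96-well plates, five concentrations, linear interpolation of endpoints. Definition used: TGI = concentration required for complete inhibition of growth.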

Tests used:
Test in all cases: NCI tumour cell line growth inhibition, 48 h
MOLT-4 leukemia = system: MOLT-4 leukemia
COLO 205 colon = system: COLO 205 colon
MCF7 breast = system: MCF7 breast
UACC-62 melanoma = system: UACC-62 melanoma
SNB-75 CNS = system: SNB-75 CNS
TK-10 renal = system: TK-10 renal
EKVX NSCLC = system: EKVX NSCLC
MDA-MB-231 breast = system: MDA-MB-231 breast
786-0 renal = system: 786-0 renal
RXF 393 renal = system: RXF 393 renal
IGROV1 ovarian = system: IGROV1 ovarian
MDA-N = system: MDA-N
K-562 leukemia = system: K-562 leukemia
DU-145 prostate = system: DU-145 prostate
SF-268 CNS = system: SF-268 CNS
T-47D breast = system: T-47D breast
HCC-2998 colon = system: HCC-2998 colon
OVCAR-8 ovarian = system: OVCAR-8 ovarian
SN12C renal = system: SN12C renal
MALME-3M melanoma = system: MALME-3M melanoma
CAKI-1 renal = system: CAKI-1 renal
HT29 colon = system: HT29 colon
RPMI-8226 leukemia = system: RPMI-8226 leukemia
CCRF-CEM leukemia = system: CCRF-CEM leukemia
HCT-15 colon = system: HCT-15 colon
SR leukemia = system: SR leukemia
SK-MEL-28 melanoma = system: SK-MEL-28 melanoma
A549 NSCLC = system: A549 NSCLC
NCI-H23 lung = system: NCI-H23 lung
HL-60(TB) leukemia = system: HL-60(TB) leukemia
HOP-62 NSCLC = system: HOP-62 NSCLC
PC-3 prostate = system: PC-3 prostate
SW-620 colon = system: SW-620 colon
KM12 colon = system: KM12 colon
SK-OV-3 ovarian = system: SK-OV-3 ovarian
M14 melanoma = system: M14 melanoma
SF-295 CNS = system: SF-295 CNS
SK-MEL-5 melanoma = system: SK-MEL-5 melanoma
UACC-257 melanoma = system: UACC-257 melanoma
OVCAR-5 ovarian = system: OVCAR-5 ovarian
A498 renal = system: A498 renal
ACHN renal = system: ACHN renal
U251 CNS = system: U251 CNS
NCI-H522 lung = system: NCI-H522 lung
MDA-MB-435 = system: MDA-MB-435
NCI-H460 lung = system: NCI-H460 lung
UO-31 renal = system: UO-31 renal
HS 578T breast = system: HS 578T breast
HOP-92 NSCLC = system: HOP-92 NSCLC
OVCAR-4 ovarian = system: OVCAR-4 ovarian
SK-MEL-2 melanoma = system: SK-MEL-2 melanoma
LOX IMVI melanoma = system: LOX IMVI melanoma
OVCAR-3 ovarian = system: OVCAR-3 ovarian
SF-539 CNS = system: SF-539 CNS
NCI-H226 lung = system: NCI-H226 lung
HCT-116 colon = system: HCT-116 colon
NCI/ADR-RES ovarian = system: NCI/ADR-RES ovarian
SNB-19 CNS = system: SNB-19 CNS

Measured: TGI

CC(C)(C)[Si](C)(C)Oc1cc(CO)cc2c1cc(=N)o[n+]2[O-]
9.28 µM: MOLT-4 leukemia
9.25 µM: MCF7 breast
7.58 µM: SR leukemia
not listed: OVCAR-5 ovarian | A498 renal | ACHN renal | U251 CNS | NCI-H522 lung | MDA-MB-435 | NCI-H460 lung | UO-31 renal | HS 578T breast | HOP-92 NSCLC | OVCAR-4 ovarian | SK-MEL-2 melanoma | LOX IMVI melanoma | OVCAR-3 ovarian | SF-539 CNS | NCI-H226 lung | HCT-116 colon | NCI/ADR-RES ovarian | SNB-19 CNS
> 10 µM: all other assays above

C1CCCCC2(CCCCCCCCC3(CCC1)OCCO3)OCCO2
3.64 µM: UO-31 renal
not listed: MOLT-4 leukemia | MDA-MB-231 breast | RPMI-8226 leukemia | CCRF-CEM leukemia
> 100 µM: all other assays above
